In patent publication US6458781B1, “Substituted diarylalkyl amides as calcium channel antagonists” (priority 1998, dated 2002):

Assays:
[1] = target: T1, N-type calcium channels in IMR-32 cells (Homo sapiens, UniProt Q00975); assay: N-type Ca2+ channel blocking potency in IMR-32 cells using Indo-1; format: cell-based; conditions: for inhibition at 1 µM / inhibition at 10 µM: IMR-32, IMR-32 cells; for inhibition at 1 µM: read-out: IMR32 % blockage at 1 μM; for inhibition at 10 µM: read-out: IMR32 % blockage at 10 μM; for IC50: IMR-32 cells, estimated from two data points, read-out: IMR32 IC50 (estimated IC50 values based on two data points)
T1 construct: host or cells: IMR-32 cells differentiated with dibutyryl cAMP and bromodeoxyuridine
Procedure: Measurement of N-type Ca^2+ Channel Blocking Potencies of Compounds in IMR-32 Cells Using the Fluorescent Ca^2+ Indicator Indo-1
IMR-32 cells are a human tumoral cell line of neural origin. […] Calcium flux into these cells may be induced by stimulation with elevated potassium concentrations. The L-channel component of calcium flux may be blocked by adding 5 μM nitrendipine. The remaining component of calcium entry into the IMR-32 cells is due to calcium flux through N-type calcium channels. Intracellular calcium concentrations are measured using the fluorescent calcium indicator Indo-1. The effect of drug concentration on calcium uptake is studied.
The IMR-32 cell line was obtained from the American Type Culture Collection (Rockville, Md.). Cells were grown in Eagle's Minimum Essential Medium with Earle's salts supplemented with 10% fetal bovine serum, 2 mM L-Gln and antibiotic/antimycotic mixture (Gibco). At approximately 80% confluency, differentiation was induced by the addition of 1 mM dibutyryl cAMP and 2.5 μM bromodeoxyuridine to the medium. After 7 to 13 days of differentiation, cells were detached using 0.5 mM EDTA and loaded with 5 μM Indo-1 acetoxymethyl ester (Molecular Probes, Eugene, Oreg.) at 30° C. for 45 minutes. Loaded cells were washed twice, resuspended (˜10^7 cells/mL) in assay buffer (10 mM HEPES/Tris pH 7.4 in Hank's Balanced Salt Solution without bicarbonate or phenol red containing 0.5% bovine serum albumin) and kept on ice until use. Fluorescence measurements were carried out in a Photon Technology International (PTI, South Brunswick, N.J.) Model RF-F3004 spectrofluorometer with dual emission monochromators using excitation at 350 nm and emission at 400 and 490 nm. The instrument was equipped with a thermostated cuvette holder with stirring capabilities as well as with a computer-controlled pump which allowed for reagent addition during measurement. Instrument control and data collection was done by PTI's OSCAR software running on an IBM compatible computer. Different concentrations of the test compounds (60 μL in dimethyl sulfoxide) were added to 5.94 mL of assay buffer containing approximately 3×10^6 loaded cells, and 5 μM Nitrendipine (in 30 μL EtOH) to block L-type Ca^2+ channels. Samples were incubated for 10 minutes at 30° C. and the aliquot into three 10×10 mm disposable acrylic cuvettes. Emission signals at 400 and 490 nm were acquired from each cuvette at 30° C. for 50 seconds. At 20 seconds after the start of reading, cells were depolarized by the addition of 160 μL of stimulation solution (1 M KCl, 68 mM CaCl2) to the cuvette via the computer-controlled pump. Ratio of dual emission signals (400/490 nm), which is proportional to intracellular Ca^2+ concentration, was plotted against time, and the difference between maximal response after stimulation and basal value (before stimulation) was determined. Values obtained in this way were plotted as a function of drug concentration. IC50 values of test compounds were calculated by fitting a four-parameter logistic function to the data using the least squares method.

[2] = target: T2, L-type calcium channels in A10 cells (Rattus norvegicus, UniProt P22002); assay: L-type Ca2+ channel blocking potency in A10 cells (FLIPR); format: cell-based; conditions: read-out: FLPA10 IC50
T2 construct: which endogenously expresses L-type calcium channels; host or cells: A10 rat embryonic thoracic aorta smooth muscle cells
T2 sequence (P22002 whole entry): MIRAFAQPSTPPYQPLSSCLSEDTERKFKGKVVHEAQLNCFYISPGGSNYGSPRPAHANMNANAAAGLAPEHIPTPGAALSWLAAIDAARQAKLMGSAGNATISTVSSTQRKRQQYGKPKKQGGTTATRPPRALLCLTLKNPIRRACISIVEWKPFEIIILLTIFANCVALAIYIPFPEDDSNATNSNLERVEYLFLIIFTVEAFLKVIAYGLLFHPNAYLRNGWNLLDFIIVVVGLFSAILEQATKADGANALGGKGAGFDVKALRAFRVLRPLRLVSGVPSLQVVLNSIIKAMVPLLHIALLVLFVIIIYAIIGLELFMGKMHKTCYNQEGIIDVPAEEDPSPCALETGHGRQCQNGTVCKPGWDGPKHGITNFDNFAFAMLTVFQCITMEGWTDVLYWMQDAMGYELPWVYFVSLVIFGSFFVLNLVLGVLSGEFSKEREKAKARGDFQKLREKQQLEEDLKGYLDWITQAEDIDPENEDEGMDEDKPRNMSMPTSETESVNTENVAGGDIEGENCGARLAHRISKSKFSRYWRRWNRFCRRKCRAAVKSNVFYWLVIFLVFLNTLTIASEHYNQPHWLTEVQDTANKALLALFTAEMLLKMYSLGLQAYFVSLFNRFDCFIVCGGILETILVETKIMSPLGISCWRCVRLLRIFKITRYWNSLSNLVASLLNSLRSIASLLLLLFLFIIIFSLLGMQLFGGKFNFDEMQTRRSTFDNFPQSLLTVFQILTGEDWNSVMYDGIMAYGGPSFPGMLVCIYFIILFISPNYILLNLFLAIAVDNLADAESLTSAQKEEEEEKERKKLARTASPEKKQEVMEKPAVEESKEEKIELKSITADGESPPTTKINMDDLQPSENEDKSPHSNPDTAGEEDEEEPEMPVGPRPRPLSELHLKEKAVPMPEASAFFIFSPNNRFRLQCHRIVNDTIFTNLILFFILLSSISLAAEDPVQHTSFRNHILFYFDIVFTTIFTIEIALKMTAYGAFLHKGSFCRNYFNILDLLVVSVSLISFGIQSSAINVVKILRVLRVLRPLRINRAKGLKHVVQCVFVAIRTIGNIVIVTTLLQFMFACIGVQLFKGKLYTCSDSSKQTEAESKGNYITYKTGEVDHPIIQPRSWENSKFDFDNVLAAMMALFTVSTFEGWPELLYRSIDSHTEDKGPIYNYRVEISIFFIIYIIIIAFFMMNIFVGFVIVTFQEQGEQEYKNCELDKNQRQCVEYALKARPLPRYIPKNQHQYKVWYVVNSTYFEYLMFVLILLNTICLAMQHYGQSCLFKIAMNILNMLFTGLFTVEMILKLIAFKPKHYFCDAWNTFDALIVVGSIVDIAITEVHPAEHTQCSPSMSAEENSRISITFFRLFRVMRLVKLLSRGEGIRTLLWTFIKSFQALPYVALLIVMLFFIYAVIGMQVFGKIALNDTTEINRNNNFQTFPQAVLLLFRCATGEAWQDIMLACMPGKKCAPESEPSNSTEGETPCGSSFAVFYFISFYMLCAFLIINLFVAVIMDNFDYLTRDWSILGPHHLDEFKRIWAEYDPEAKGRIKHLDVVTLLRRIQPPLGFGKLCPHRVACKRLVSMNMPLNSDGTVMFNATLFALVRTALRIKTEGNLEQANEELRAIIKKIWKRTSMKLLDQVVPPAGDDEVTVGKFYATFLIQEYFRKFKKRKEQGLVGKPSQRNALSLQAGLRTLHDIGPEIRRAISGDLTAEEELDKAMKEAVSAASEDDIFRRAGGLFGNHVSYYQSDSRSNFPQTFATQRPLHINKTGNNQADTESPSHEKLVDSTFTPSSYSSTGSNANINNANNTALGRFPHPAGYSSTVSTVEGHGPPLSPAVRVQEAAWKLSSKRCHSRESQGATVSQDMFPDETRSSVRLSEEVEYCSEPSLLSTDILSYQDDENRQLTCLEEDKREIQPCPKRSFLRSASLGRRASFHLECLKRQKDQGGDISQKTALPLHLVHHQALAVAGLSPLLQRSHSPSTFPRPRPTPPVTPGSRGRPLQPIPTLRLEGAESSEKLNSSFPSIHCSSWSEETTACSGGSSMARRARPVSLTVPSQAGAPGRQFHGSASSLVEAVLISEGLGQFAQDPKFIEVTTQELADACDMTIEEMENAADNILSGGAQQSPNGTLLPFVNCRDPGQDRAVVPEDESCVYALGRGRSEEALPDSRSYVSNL
T2 sequence (P54290 25-944 partner limits assumed): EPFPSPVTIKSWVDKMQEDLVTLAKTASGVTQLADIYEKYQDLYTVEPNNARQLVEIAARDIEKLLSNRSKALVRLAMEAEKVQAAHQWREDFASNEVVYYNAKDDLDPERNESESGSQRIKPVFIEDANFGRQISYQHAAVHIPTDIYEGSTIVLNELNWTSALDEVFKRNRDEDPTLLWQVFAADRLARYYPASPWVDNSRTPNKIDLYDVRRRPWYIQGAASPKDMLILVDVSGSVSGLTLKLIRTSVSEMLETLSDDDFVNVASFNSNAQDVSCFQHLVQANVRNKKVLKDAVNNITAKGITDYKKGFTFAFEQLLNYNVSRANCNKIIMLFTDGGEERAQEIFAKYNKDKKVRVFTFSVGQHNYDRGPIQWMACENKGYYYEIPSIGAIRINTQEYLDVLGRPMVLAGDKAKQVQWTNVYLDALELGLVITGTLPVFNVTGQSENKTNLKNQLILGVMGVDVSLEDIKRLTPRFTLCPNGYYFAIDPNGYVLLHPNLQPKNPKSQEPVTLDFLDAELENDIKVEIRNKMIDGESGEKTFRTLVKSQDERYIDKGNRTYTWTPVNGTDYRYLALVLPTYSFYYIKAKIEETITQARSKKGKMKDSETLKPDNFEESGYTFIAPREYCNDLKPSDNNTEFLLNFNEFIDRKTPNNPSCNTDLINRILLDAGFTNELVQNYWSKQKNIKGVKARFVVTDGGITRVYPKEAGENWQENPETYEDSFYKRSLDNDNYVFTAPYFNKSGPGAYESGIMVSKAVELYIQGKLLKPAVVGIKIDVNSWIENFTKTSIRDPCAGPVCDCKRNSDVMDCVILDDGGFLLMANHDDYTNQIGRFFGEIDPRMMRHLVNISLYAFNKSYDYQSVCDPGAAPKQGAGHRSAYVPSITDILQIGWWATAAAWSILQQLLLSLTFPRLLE
T2 sequence (P54290 945-1091 partner limits assumed): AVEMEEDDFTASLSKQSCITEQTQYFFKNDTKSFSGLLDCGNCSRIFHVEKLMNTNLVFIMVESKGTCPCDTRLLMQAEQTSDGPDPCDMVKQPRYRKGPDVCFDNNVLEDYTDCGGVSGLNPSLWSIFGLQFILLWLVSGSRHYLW
T2 sequence (P54287 whole entry partner): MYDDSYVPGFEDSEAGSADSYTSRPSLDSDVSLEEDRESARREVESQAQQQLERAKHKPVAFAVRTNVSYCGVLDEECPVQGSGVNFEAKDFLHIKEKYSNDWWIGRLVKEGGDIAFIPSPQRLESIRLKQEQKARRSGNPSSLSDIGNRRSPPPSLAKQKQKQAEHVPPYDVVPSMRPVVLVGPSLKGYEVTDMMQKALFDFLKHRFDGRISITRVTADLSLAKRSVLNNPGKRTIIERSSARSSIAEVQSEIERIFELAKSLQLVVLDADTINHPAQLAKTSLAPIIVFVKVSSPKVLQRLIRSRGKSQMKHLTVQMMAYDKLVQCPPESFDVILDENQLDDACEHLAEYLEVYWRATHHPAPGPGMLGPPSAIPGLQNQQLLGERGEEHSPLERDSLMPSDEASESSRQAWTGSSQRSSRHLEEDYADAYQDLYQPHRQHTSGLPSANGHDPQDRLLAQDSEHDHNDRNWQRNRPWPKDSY
Procedure: Measurement of L-type Ca^2+ Channel Blocking Potencies of Compounds in A10 Cells
Calcium flux through voltage-sensitive calcium channels was assessed by time-resolved monitoring of the fluorescence of pre-loaded calcium-sensitive dyes using FLIPR, a fluorescent image plate reader (Molecular Devices Co.). The A10 smooth muscle cell line derived from embryonic thoracic aorta of the DBIX rat (ATCC, CRL-1476) which endogenously expresses L-type calcium channels. The growth media for A10 cells was Ham's F12/DME high glucose (Irvine Scientific, 9052), supplemented with 20% fetal bovine serum (HyClone Labs, A-1115-L), and 1% each of L-glutamine and antibiotic-antimycotic (same source as above).
Cells were grown to confluency and replated on black-sided 96-well plates (Costar, 3603) for use in FLIPR. Two days after replating, growth media was removed and cells were loaded at 37° C. with 100 μL media containing 1 μM Oregon Green 488 Bapta-1 dye (Molecular Probes, O-6807) for 1 to 3 hours. The dye-containing media was then washed away with buffer (composition in mM: 1.25 CaCl2, 1.2 MgSO4, 11 glucose, 10 HEPES, 3.0 KCl, 137.0 NaCl, pH 7.4 with Tris base) in a Denley Cellwash (Labsystems, CW018B). The residual buffer volume was adjusted to 50 μL. A 5 minute drug-pre-incubation period at 35° C. was initiated when 50 μL of drug-containing buffer was pipetted into the cell plate with the 96-well pipettor integrated in the FLIPR apparatus. Fluorescent counts were monitored at 20 second intervals for 360 seconds, beginning 60 seconds prior to the delivery of drug-containing buffer. Following drug addition, 100 μL aliquots of a high K^+, depolarizing stimulus (composition in mM: 1.25 CaCl2, 1.2 MgSO4, 11 glucose, 10 HEPES, 140.0 KCl, pH 7.4 with Tris base) were added to each well, and fluorescence was monitored at 1 second intervals for 120 seconds beginning 10 seconds prior to the stimulus addition. CCD camera exposure time was 0.4 seconds, laser excitation was at 488 nm with a power of 0.2-0.5W, and a 510 to 560 nm bandpass interference filter preceded the camera.
Data was analyzed as a summation of fluorescent counts above basal during the stimulation period (an approximation of area under the curve), after normalizing the data with a spatial uniformity correction (for variations in laser illumination and cell density) and a negative control correction (zero calcium increase defined as the fluorescence reading in the presence of saturating pharmacologic block of the respective calcium channel). Drug effects were expressed as percent inhibition of fluorescence from an average of 8 K^+-stimulated wells which were pre-treated in the drug incubation period with buffer only. In the A10 cells, the pharmacologic agent used to define zero calcium influx was nitrendipine (RBI, N-144) at a final concentration of 1.0×10^−6 M.

| SMILES | inhibition at 1 µM [1] [%] | inhibition at 10 µM [1] [%] | IC50 [2] [nM] | melting point [°C] | IC50 [1] [nM] |
| --- | --- | --- | --- | --- | --- |
| CC(C)CC(NC(=O)N1CCN(C)CC1)C(=O)N1CCN(C(c2ccc(F)cc2)c2ccc(F)cc2)CC1 (stereo in doubt) [Example 47, (S)-4-Methyl-piperazine-1-carboxylic acid (1-{4-[bis-(4-fluoro-phenyl)-methyl]-piperazine-1-carbonyl}-3-methyl-butyl)-amide] | 13 | 54 | 1700 | 65 to 78 |  |
| CC(C)C[C@H](NC(=O)N1CCN(c2ccccc2)CC1)C(=O)NCCCC(c1ccc(F)cc1)c1ccc(F)cc1 [Example 17, (S)-4-Phenyl-piperazine-1-carboxylic acid {1-[4,4-bis-(4-fluoro-phenyl)-butylcarbamoyl]-3-methyl-butyl}-amide] |  |  | 74 | 138 to 141 | 2000 |
| CC(C)C[C@@H](C(=O)NCCCC(c1ccc(F)cc1)c1ccc(F)cc1)N1CCCCC1 [Example 22, (S)-4-Methyl-2-piperidin-1-yl-pentanoic acid [4,4-bis-(4-fluoro-phenyl)-butyl]-amide] | 49 | 94 | 160 | 52 to 70 |  |
| CC(C)[C@H](NC(=O)N1CCCCCC1)C(=O)NCCCC(c1ccc(F)cc1)c1ccc(F)cc1 [Example 26, (S)-Azepane-1-carboxylic acid {1-[4,4-bis-(4-fluoro-phenyl)-butylcarbamoyl]-2-methyl-propyl}-amide] |  |  | 240 | 32 to 50 | 840 |
| CC(C)C[C@H](NCc1ccc(OC(C)(C)C)cc1)C(=O)N1CCN(C(c2ccc(F)cc2)c2ccc(F)cc2)CC1 [Example 64, (S)-1-{4-[Bis-(4-fluoro-phenyl)-methyl]-piperazin-1-yl}-2-(4-tert-butoxy-benzylamino)-4-methyl-pentan-1-one] |  |  | 89 | 56 to 61 |  |

Further lines, results first:

| inhibition at 1 µM [1] [%] | inhibition at 10 µM [1] [%] | IC50 [2] [nM] | melting point [°C] | IC50 [1] [nM] | SMILES |
| --- | --- | --- | --- | --- | --- |
|  |  | 270 | 50 to 60 | 610 | CCC(C)[C@H](NC(=O)N1CCCCCC1)C(=O)NCCCC(c1ccc(F)cc1)c1ccc(F)cc1 (stereo partly drawn) [Example 16, (S)-Azepane-1-carboxylic acid {1-[4,4-bis-(4-fluoro-phenyl)-butylcarbamoyl]-2-methyl-butyl}-amide] |
| 35 | 89 | 1500 | 58 to 65 |  | CC(C)C[C@@H](C(=O)NCCC(c1ccccc1)c1ccccc1)N1CCCCC1.Cl [Example 24, (S)-4-Methyl-2-piperidin-1-yl-pentanoic acid (3,3-diphenyl-propyl)-amide monohydrochloride] |
| 22 | 82 | 1200 | 73 to 91 |  | CC(C)C[C@H](NC(=O)N1CCN(C)CC1)C(=O)NCCCC(c1ccc(F)cc1)c1ccc(F)cc1 [Example 29, (S)-4-Methyl-piperazine-1-carboxylic acid {1-[4,4-bis-(4-fluoro-phenyl)-butylcarbamoyl]-3-methyl-butyl)-amide] |
| 39 | 100 | 1300 | 29 to 49 |  | C[C@H](NC(=O)N1CCCCCC1)C(=O)NCCCC(c1ccc(F)cc1)c1ccc(F)cc1 [Example 30, (S)-Azepane-1-carboxylic acid {1-[4,4-bis-(4-fluoro-phenyl)-butylcarbamoyl]-ethyl}-amide] |
|  |  | > 3000 | 57 to 62 |  | CC(C)C[C@H](NCc1ccc(C(C)(C)C)cc1)C(=O)N1CCN(C(c2ccc(F)cc2)c2ccc(F)cc2)CC1 [Example 58, (S)-1-{4-[Bis-(4-fluoro-phenyl)-methyl]-piperazin-1-yl}-2-(4-tert-butyl-benzylamino)-4-methyl-pentan-1-one] |
